Measured values from patent US8268961B2, “Antibacterial peptides and analogues thereof” (Universita Degli Studi di Siena, priority 2004, dated 2012).
Positions of bridges follow the written chain, without caps; N, C: chain ends. Chains are numbered I, II in the order given. No end group written: not given here.

Assays:
E. coli strain TG1 [1] = assay: Stability of peptide in solution (time course of antibacterial activity); format: physicochemical; settings: PBS 0.5 mg/ml, 1, 48 and 72 hours
Protocol: FIG. 6. Stability of M1 peptide in solution. Time course of antibacterial activity of M1 on E. coli strain TG1. MAP M1 peptide was dissolved in PBS at a concentration of 0.5 mg/ml and bactericide activity was measured 1, 48 and 72 hours after re-suspension in PBS.
FIG. 8. Stability of M4, M5 and M6 peptides in solution. Time course of antibacterial activity of M4, M5 and M6 on E. coli strain TG1. M4, M5 and M6 peptides were dissolved in PBS at a concentration of 0.5 mg/ml and bactericide activity was measured 1, 48 and 144 hours after re-suspension in PBS.

[2] = Stability to plasmatic protease (HPLC); format: in vitro ADME, human
Protocol: Since the use of peptides as therapeutic agents is severely limited by their in vivo half-life, the stability to human serum protease of the linear peptide L1 and of the MAP peptides M1, M4, M5 and M6 was evaluated. The peptides were incubated at the concentration of 10 mM with plasma and with human serum for 2 and 24 hours; the samples were subsequently analysed in HPLC on column C18 (see materials and methods) to evaluate the presence of linear and MAP peptide not digested by the protease.
The various peptides in MAP form and the linear peptide (L1) were dissolved in H2O at the concentration of 10 mM and incubated with 10 μl of plasma and human serum for 2 and 24 hours at 37° C. To each sample were added 150 μl of methanol to block the proteolytic reaction; each sample was then centrifuged at 13,000 rpm for 2 min and to the supernatant were added 0.75 ml of 0.1% trifluoroacetic acid. The samples were analysed in reverse phase HPLC on a Vydac C18 semi-preparative column using a 30 min gradient of buffer B from 20% to 95% (buffer A: 0.1% trifluoroacetic acid/water; buffer B: 0.1% trifluoroacetic acid/methanol), to evaluate the presence of linear and MAP peptide after the proteolytic treatment.

E. coli strain TG1 [3] = assay: Test of antibacterial activity (colony growth inhibition) on E. coli strain TG1; format: cell-based
Summary of the method: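 E. coli TG1 (OD600 0.2) was incubated 75 min at 37 °C with peptide in PBS at 0.12–2 mg/ml. Cells were then diluted 1:1000, plated on 2×TY agar and grown overnight at 30 °C, and colonies were counted against an untreated control.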

Cytotoxicity test by MTT = format: cell-based, mouse; settings: mouse, J774 A.1 murine macrophage cells
Protocol: (§1) The cytotoxicity of antibacterial MAP peptides was evaluated on different eukaryotic cell lines by a colorimetric assay (MTT). This assay measures the cells' ability to convert a soluble tetrazolium salt into an insoluble precipitate: formazan. The cytotoxicity of M1 was evaluated on murine macrophagic cells (J774 A.1), murine myeloma cells (SPO) and Chinese hamster ovary epithelium cells (CHO K1). As shown FIG. 4, even at high concentrations (1 mg/ml) M1 cytotoxicity on CHO K1 cells and on SPO cells is low (percent survival is 80-90%).
(§2) For cytotoxicity tests, different cell lines were used: murine myeloma cells SPO, hamster ovary epithelium cells CHO K 1, murine macrophage cells J774 A.1 and human keratinocytes HaCaT. The cells were plated in medium in RPMI 1640 (SPO and CHO K 1) and DMEM (J774 A.1 and HaCaT) with antibiotics and bovine foetal serum at 10%, in 96-well plates at the concentration of 6×10^4 (SPO, CHO K1 and J774 A.1) and 3×10^4 (HaCaT). Peptides, previously filtered with a 0.2 μm filter disk (Whatman), were added at various concentrations to the different cell lines and left in incubation over night at 37° C. Cell viability was determined adding the MTT tetrazolium salt at the concentration of 0.5 mg/ml and incubating for 90 min. The cells were solubilised with a solution at pH 4.5 containing SDS 10% and dimethylformamide 45% and read at the dual wavelength of 595/650 nm with a plate reader.

in vitro = format: cell-based
Protocol: as §1
as §2, with “Peptides, previously filtered with a 0.2 μm filter disk (Whatman), were added at various concentrations to the different cell lines and left in incubation over night at 37° C.” left out

## I: QEKIRVRLSAKKA-OH / II: QEKIRVRLSAK / III: QEKIRVRLSA / IV: QEKIRVRLSA (amide I:11-IV:C, I:12-II:C, II:11-III:C) [M1]
E. coli strain TG1 [1]
  Stability in solution: antibacterial activity over time after resuspension: drop in activity over time
[2]
  Resistance to plasmatic protease: Plasma 2 h: +
E. coli strain TG1 [3]; E. coli TG1, MAP form
  Concentration down to which TG1 E. coli colony growth is prevented: less effective
E. coli strain TG1 [3]; E. coli TG1, colony counting vs control without peptide
  Antibacterial activity on E. coli TG1 colony growth: inhibited significantly
Cytotoxicity test by MTT
  viability at 1000 µg/mL: ~50%
In vitro; CHO K1 cells (Chinese hamster ovary epithelium)
  viability at 1000 µg/mL: 80 to 90%
In vitro; mouse, SPO murine myeloma cells
  viability at 1000 µg/mL: 80 to 90%
